Measurements reported in patent US20130158072A1, “KAPPA OPIOID RECEPTOR BINDING LIGANDS” (Research Triangle Institute, priority 2010, published 2013).
“Also recorded” adds a separate entry of the source. Structures can show the parent of a compound that is named as a salt. Marks after values point to notes of the source that are not given here. Values belong to the compound of their own block, whether it stands above or below them.

Experiments:
[1] = biological target: T1, cloned human μ-opioid receptor (Homo sapiens, UniProt P35372); experiment: Intrinsic activity in the [35S]GTPγS binding assay; format: biochemical; conditions: at 10 μM
T1 construct: expressed in transfected cells; host or cells: CHO cells

[2] = biological target: T2, cloned human δ-opioid receptor (Homo sapiens, UniProt P41143); experiment: Intrinsic activity in the [35S]GTPγS binding assay; format: biochemical; conditions: at 10 μM
T2 construct: expressed in transfected cells; host or cells: CHO cells

rodents = conditions: forced-swim, elevated plus maze, fear-potentiated startle; cited from earlier work
κ-opioid receptor = conditions: in vivo, compared with other κ-opioid antagonists; cited from earlier work
mice = conditions: oral; cited from earlier work
rats = conditions: oral; cited from earlier work
[3] = biological target: T3, cloned human κ-opioid receptor (Homo sapiens, UniProt P41145); experiment: Inhibition of U69,593-stimulated [35S]GTPγS binding; conditions: for κ, U69,593 Ke / κ, U69,593 Ke (nM): antagonism of U69,593-stimulated [35S]GTPγS binding, CHO cells, means ± SE, at least three experiments; for δ/κ: κ selectivity relative to δ
[4] = biological target: T3, cloned human κ-opioid receptor; experiment: Intrinsic activity in the [35S]GTPγS binding assay; format: biochemical; design: expressed in transfected cells; host or cells: CHO cells; conditions: at 10 μM
[5] = biological target: T3, cloned human κ-opioid receptor; design: expressed in transfected cells; host or cells: CHO cells; conditions: previously reported; cited from earlier work
[6] = biological target: T1, cloned human μ-opioid receptor; experiment: Inhibition of DAMGO-stimulated [35S]GTPγS binding; format: biochemical; conditions: for μ, DAMGO Ke (nM): antagonism of DAMGO-stimulated [35S]GTPγS binding, CHO cells, means ± SE, at least three experiments
[7] = biological target: T2, cloned human δ-opioid receptor; experiment: Inhibition of DPDPE-stimulated [35S]GTPγS binding; format: biochemical; conditions: antagonism of DPDPE-stimulated [35S]GTPγS binding, CHO cells; means ± SE, at least three experiments

T3 sequence (P41145 whole entry): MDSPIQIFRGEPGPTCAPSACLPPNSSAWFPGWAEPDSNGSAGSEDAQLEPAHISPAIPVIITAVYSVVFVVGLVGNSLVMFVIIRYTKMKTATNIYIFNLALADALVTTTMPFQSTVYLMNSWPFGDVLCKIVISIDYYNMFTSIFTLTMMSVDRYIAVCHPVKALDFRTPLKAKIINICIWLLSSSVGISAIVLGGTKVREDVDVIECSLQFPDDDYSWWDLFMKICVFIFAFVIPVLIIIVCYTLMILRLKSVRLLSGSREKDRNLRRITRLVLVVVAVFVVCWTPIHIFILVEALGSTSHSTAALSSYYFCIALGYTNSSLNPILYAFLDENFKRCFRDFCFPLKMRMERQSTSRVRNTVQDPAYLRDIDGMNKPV
T2 sequence (P41143 whole entry): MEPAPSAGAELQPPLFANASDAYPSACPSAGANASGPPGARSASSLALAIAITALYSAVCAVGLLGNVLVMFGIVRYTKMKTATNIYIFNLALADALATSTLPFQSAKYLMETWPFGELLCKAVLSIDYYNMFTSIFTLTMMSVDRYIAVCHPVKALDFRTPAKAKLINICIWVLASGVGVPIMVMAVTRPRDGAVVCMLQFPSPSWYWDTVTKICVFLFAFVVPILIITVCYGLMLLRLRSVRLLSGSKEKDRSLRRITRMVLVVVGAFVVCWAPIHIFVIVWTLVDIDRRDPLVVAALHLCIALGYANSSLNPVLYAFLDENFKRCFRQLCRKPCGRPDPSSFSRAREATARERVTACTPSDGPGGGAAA
T1 sequence (P35372 whole entry): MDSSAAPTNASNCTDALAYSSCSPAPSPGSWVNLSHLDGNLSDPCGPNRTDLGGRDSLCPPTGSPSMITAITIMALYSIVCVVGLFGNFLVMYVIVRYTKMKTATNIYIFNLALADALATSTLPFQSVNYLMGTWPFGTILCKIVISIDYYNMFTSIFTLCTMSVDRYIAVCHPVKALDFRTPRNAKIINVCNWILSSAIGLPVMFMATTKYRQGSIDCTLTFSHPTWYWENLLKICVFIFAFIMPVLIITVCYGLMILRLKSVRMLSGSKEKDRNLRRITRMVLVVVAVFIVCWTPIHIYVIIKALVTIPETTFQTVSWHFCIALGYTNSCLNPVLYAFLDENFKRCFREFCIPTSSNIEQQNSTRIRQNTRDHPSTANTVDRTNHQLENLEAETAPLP

κ, U69,593 Ke [3]: 0.02 nM
SMILES: CC(C)[C@@H](CN1CC[C@@](C)(c2cccc(O)c2)[C@@H](C)C1)NC(=O)[C@H]1Cc2ccc(O)cc2CN1 [Compound 3, (3R)-7-hydroxy-N-((1S)-1-{[(3R,4R)-4-(3-hydroxyphenyl)-3,4-dimethyl-1-piperidinyl]methyl}-2-methylpropyl)-1,2,3,4-tetrahydro-3-isoquinolinecarboxamide]
intrinsic activity at the μ opioid receptor [1]: none of the compounds displayed measurable intrinsic activity | intrinsic activity at the δ opioid receptor [2]: none of the compounds displayed measurable intrinsic activity | fear and stress-induced responses (rodents): dose-dependently reduce fear and stress-induced responses | potency at blocking κ-opioid agonist-induced activity (κ-opioid receptor): more potent | antagonism of the antinociceptive activity of enadoline (mice): oral activity | prevention of stress-induced cocaine reinstatement of self-administration (rats): oral activity | intrinsic activity at the κ opioid receptor [4]: none of the compounds displayed measurable intrinsic activity | Ke value at the κ-opioid receptor [5]: 0.02 nM

SMILES: COc1ccc2c(c1)CNC(C(=O)NC(CN1CCC(C)(c3cccc(O)c3)C(C)C1)C(C)C)C2 (centres unmarked) [Compound 8b]
μ, DAMGO Ke (nM) [6]: 51.4 ± 15^c nM | δ, DPDPE Ke (nM) [7]: 118 ± 45^c nM | κ, U69,593 Ke [3]: 0.06 nM | κ, U69,593 Ke (nM) [3]: 0.06 ± 0.01^c nM | decrease in potency at the κ receptor relative to 3 ([3]; compared with 3): 3 fold | δ/κ ([3]; ratio of Ke values): 1970 | μ/κ ([3]; ratio of Ke values, κ selectivity relative to μ): 857 | Ke value at the κ-opioid receptor [5]: 0.06 nM | fold less potent than 3 at the κ-opioid receptor [5]: 3 fold | κ selectivity relative to the δ opioid receptor [5]: 1970 fold | κ selectivity relative to the μ opioid receptor [5]: 857 fold

SMILES: CCC(C)C(CN1CCC(C)(c2cccc(O)c2)C(C)C1)NC(=O)C1Cc2ccc(O)cc2CN1 (centres unmarked) [Compound 8a]
μ, DAMGO Ke (nM) [6]: 3 ± 1^c nM | potency at μ receptors compared to 3 ([6]; compared with 3): increased potency; also recorded: eight-fold increase in potency | δ, DPDPE Ke (nM) [7]: 24 ± 4^c nM | κ, U69,593 Ke [3]: 0.03 nM | κ, U69,593 Ke (nM) [3]: 0.03 ± 0.02^c nM | δ/κ ([3]; ratio of Ke values): 800 | Ke value at the κ-opioid receptor [5]: 0.03 nM | κ selectivity relative to the δ opioid receptor [5]: 800 fold | κ selectivity relative to the μ opioid receptor [5]: 100 fold

SMILES: COc1cccc([C@]2(C)CCN(C[C@@H](NC(=O)[C@H]3Cc4ccc(O)cc4CN3C)C(C)C)C[C@@H]2C)c1 (as salt: hydrochloride) [Compound 8k, (3R)-7-Hydroxy-N-[(1S)-1-{[(3R,4R)-4-(3-methoxyphenyl)-3,4-dimethylpiperidin-1-yl]methyl}-2-methylpropyl]-2-methyl-1,2,3,4-tetrahydroisoquinoline-3-carboxamide]
melting point: 210 to 215 °C (dec.)

SMILES: CC[C@H](C)[C@@H](CN1CC[C@@](C)(c2cccc(OC)c2)[C@@H](C)C1)NC(=O)[C@H]1Cc2ccc(O)cc2CN1C (as salt: hydrochloride) [Compound 8p, (3R)-7-Hydroxy-N-[(1S,2S)-1-{[(3R,4R)-4-(3-methoxyphenyl)-3,4-dimethylpiperidin-1-yl]methyl}-2-methylbutanyl]-2-methyl-1,2,3,4-tetrahydroisoquinoline-3-carboxamide]
melting point: 180 °C (dec.)

SMILES: CC[C@H](C)[C@@H](CN1CC[C@@](C)(c2cccc(O)c2)[C@@H](C)C1)NC(=O)[C@@]1(C)Cc2ccc(O)cc2CN1 (as salt: hydrochloride) [Compound 8i, (3R)-7-Hydroxy-N-[(1S,2S)-1-{[(3R,4R)-4-(3-hydroxyphenyl)-3,4-dimethylpiperidin-1-yl]methyl}-2-methylbutanyl]-3-methyl-1,2,3,4-tetrahydroisoquinoline-3-carboxamide]
melting point: > 220 °C (dec.)

SMILES: Oc1ccc2c3c1O[C@H]1c4[nH]c5c(c4C[C@@]4(O)[C@@H](C2)N(CC2CC2)CC[C@]314)C[C@@]1(O)[C@H]2Cc3ccc(O)c4c3[C@@]1(CCN2CC1CC1)[C@H]5O4 [Compound 1, nor-BNI]
fear and stress-induced responses (rodents): dose-dependently reduce fear and stress-induced responses

SMILES: CC[C@H](C)[C@@H](CN1CC[C@@](C)(c2cccc(OC)c2)[C@@H](C)C1)NC(=O)[C@@]1(C)Cc2ccc(O)cc2CN1 (as salt: hydrochloride) [Compound 8n, (3R)-7-Hydroxy-N-[(1S,2S)-1-{[(3R,4R)-4-(3-methoxyphenyl)-3,4-dimethylpiperidin-1-yl]methyl}-2-methylbutanyl)-3-methyl-1,2,3,4-tetrahydroisoquinoline-3-carboxamide]
melting point: 210 °C (dec.)

SMILES: COc1cccc([C@]2(C)CCN(C[C@@H](NC(=O)[C@@]3(C)Cc4ccc(O)cc4CN3)C(C)C)C[C@@H]2C)c1 (as salt: hydrochloride) [Compound 8h, (3R)-7-Hydroxy-N-[(1S)-1-{[(3R,4R)-4-(3-methoxyphenyl)-3,4-dimethylpiperidin-1-yl]methyl}-2-methylpropyl]-3-methyl-1,2,3,4-tetrahydroisoquinoline-3-carboxamide]
melting point: > 220 °C (dec.)
